# Test results taken from publication PMC6052416, “Selective inhibition of carbonic anhydrase-IX by sulphonamide derivatives induces pH and reactive oxygen species-mediated apoptosis in cervical cancer HeLa cells” (Journal of Enzyme Inhibition and Medicinal Chemistry, 2018).
# Like-named read-outs stand apart in the source and are kept apart here.
# Tested on: HT-29 (colon adenoma cancer)
# Experiment: WST-1 cytotoxicity, HT-29
# Type: cell-based, human
# Procedure: Cancer and normal cell lines were purchased from ATCC and stored in liquid nitrogen. HT-29 (colon adenoma cancer), HeLa (cervix adenoma cancer cell), MDA-MB-231 (breast adenoma cancer cell), HEK-293 (embryonic kidney epithelial cell) and PNT-1A (normal prostate cells) cell lines were incubated in DMEM: F-12 and RPMI-1640, including 10% foetal bovine serum (FBS), 100 µg/mL streptomycin/100 IU/mL penicillin, at 37 °C in an incubator containing 5% CO2, 95% air in a humid atmosphere.
# The cytotoxic effects of the substances were evaluated with WST-1 kits (Roche, Germany) in accordance with the manufacturer’s protocols. The cells were planted in 96-well plates (10^4 cells in each well). After incubation for 24 h, the media were discarded and the substances and 5-Fu as the control drug, at doses of 0, 2.5, 5, 10, 25, 50, 100 and 200 µM, were incubated for 24, 48 and 72 h. WST-1 reactive of 10 µL was added to all wells. Following 4-h incubation, the measurements were taken on a plate reader (Spectramax M5) at wavelengths of 450 and 630 nm. Graphs were then created and the IC50 value of each substance was calculated.
smiles,measurement,setting,value
NS(=O)(=O)c1ccc(CCN=Cc2cc(Br)ccc2O)cc1 [Compound 1],IC50,"WST-1, 24 h, read-out: IC50 HT-29 24 h",46.1 ± 5.4 µM
same,IC50,"WST-1, 48 h, read-out: IC50 HT-29 48 h",43.8 ± 1.2 µM
same,IC50,"WST-1, 72 h, read-out: IC50 HT-29 72 h",108 ± 34.5 µM
